Results as given in article PMC10066365, “Nemacol is a small molecule inhibitor of C. elegans vesicular acetylcholine transporter with anthelmintic potential” (Nature Communications, 2023).
“And” between values parts separate entries of the source, which are not always exact repeats. Equal entries are not always repeated.

What was measured:
[1] = system: Dirofilaria immitis microfilariae; assay: Dirofilaria immitis microfilariae immobility assay (DiroImager, 72 h); details: for % effect (motility), DIROIM MF: Dirofilaria immitis microfilariae; for EC50: Dirofilaria immitis, 72 h, read-out: Dirofilaria immitis filariae EC50
Procedure: We conducted experiments with the Missouri isolate of Dirofilaria immitis in two labs. In the first set of experiments, shown as part of Fig. 3c, D. immitis microfilariae and larval stage 3 (L3) worms were assayed in the laboratories of Bayer Animal Health GmbH (Monheim, Germany). For microfilariae immobility assays, approximately 250 freshly purified microfilariae were cultured in single wells of a 96-well microtiter plate containing supplemented RPMI 1640 medium[68],[69]. […] Microfilariae exposed to medium substituted with 1% DMSO were used as negative controls. Motility of microfilariae was evaluated after 72 h of drug exposure using an image-based approach—DiroImager, developed by Bayer Technology Services. As described in detail in refs. [68],[69], the DiroImager is an automated high-throughput platform that allows for high-resolution optical imaging of an entire 96-well microtiter plate.

Pristionchus pacificus = Pristionchus pacificus motor disruption dose-response on solid media, 1 h; details: for EC50: Pristionchus pacificus, 1 h, read-out: P. pacificus motor disruption EC50; for mean % any phene: any phenotype (coiled, jerky-Unc or paralyzed) at one hour; for mean % any phene / mean % any phene (coiled, jerky-Unc or paralyzed): mean of three biological replicates; for rep 1 atypical locomotion / rep 1 coiled / rep 1 no phene / rep 1 paralyzed / rep 2 atypical locomotion / rep 2 coiled / rep 2 no phene / rep 2 paralyzed / rep 3 atypical locomotion / rep 3 coiled / rep 3 no phene / rep 3 paralyzed: count of 20 animals per trial, one hour; for mean % any phene (coiled, jerky-Unc or paralyzed): Pristionchus pacificus young adults
C. elegans = C. elegans motor phenotype scoring on solid media (Punc/jerky-unc, coiled, paralyzed), wild-type young adults; assay type: in vivo, Caenorhabditis elegans; details: for atypical locomotion (number of animals) / coiled (number of animals) / no phene (number of animals) / paralyzed (number of animals) / any phene: mean % fraction of young adults exhibiting any phenotype (coiled, jerky-Unc or paralyzed) / any phene (mean % fraction of young adults exhibiting any phenotype: coiled, jerky-Unc or paralyzed): one hour; for atypical locomotion (number of animals) / coiled (number of animals) / no phene (number of animals) / paralyzed (number of animals): young adults, 20 animals per trial, single technical replicate; for any phene: mean % fraction of young adults exhibiting any phenotype (coiled, jerky-Unc or paralyzed) / any phene (mean % fraction of young adults exhibiting any phenotype: coiled, jerky-Unc or paralyzed): mean of three biological replicates; for EC50: Caenorhabditis elegans, any motor phenotype after 1 h on solid media, ± 95% CI, read-out: C. elegans - motor disruption EC50
[2] = system: Dirofilaria immitis L3/L4; assay: Dirofilaria immitis L3/L4 motility assay (DiroImager, 72 h); details: Dirofilaria immitis L4

Structure (SMILES): O=[N+]([O-])c1ccc(N2CCN(C3CCCCC3)CC2)cc1 [Nemacol-64]
- % effect (motility), DIROIM MF ([1]; 0.016 µM): 0%
- % effect (motility), DIROIM MF ([1]; 0.08 µM): 0%
- % effect (motility), DIROIM MF ([1]; 0.4 µM): 0%
- % effect (motility), DIROIM MF ([1]; 2 µM): 0%
- % effect (motility), DIROIM MF ([1]; 10 µM): 40%
- EC50 [1]: 11 µM
- EC50 (Pristionchus pacificus): 14.3 µM
- mean % any phene (Pristionchus pacificus; conc 3.75): 0%
- rep 1 atypical locomotion (Pristionchus pacificus; conc 3.75): 0
- rep 1 coiled (Pristionchus pacificus; conc 3.75): 0
- rep 1 no phene (Pristionchus pacificus; conc 3.75): 20
- rep 1 paralyzed (Pristionchus pacificus; conc 3.75): 0
- rep 2 atypical locomotion (Pristionchus pacificus; conc 3.75): 0
- rep 2 coiled (Pristionchus pacificus; conc 3.75): 0
- rep 2 no phene (Pristionchus pacificus; conc 3.75): 20
- rep 2 paralyzed (Pristionchus pacificus; conc 3.75): 0
- rep 3 atypical locomotion (Pristionchus pacificus; conc 3.75): 0
- rep 3 coiled (Pristionchus pacificus; conc 3.75): 0
- rep 3 no phene (Pristionchus pacificus; conc 3.75): 20
- rep 3 paralyzed (Pristionchus pacificus; conc 3.75): 0
- mean % any phene (Pristionchus pacificus; conc 15): 70.8333%
- rep 1 atypical locomotion (Pristionchus pacificus; conc 15): 10 and 14
- rep 1 no phene (Pristionchus pacificus; conc 15): 7 and 5
- rep 1 paralyzed (Pristionchus pacificus; conc 15): 0
- rep 2 atypical locomotion (Pristionchus pacificus; conc 15): 14 and 12
- rep 2 no phene (Pristionchus pacificus; conc 15): 5 and 8
- rep 2 paralyzed (Pristionchus pacificus; conc 15): 0
- rep 3 atypical locomotion (Pristionchus pacificus; conc 15): 15 and 12
- rep 3 coiled (Pristionchus pacificus; conc 15): 2 and 1
- rep 3 paralyzed (Pristionchus pacificus; conc 15): 0
- mean % any phene (Pristionchus pacificus; conc 60): 100%
- rep 1 atypical locomotion (Pristionchus pacificus; conc 60): 2 and 1
- rep 1 coiled (Pristionchus pacificus; conc 60): 8 and 12
- rep 1 no phene (Pristionchus pacificus; conc 60): 0
- rep 1 paralyzed (Pristionchus pacificus; conc 60): 10 and 7
- rep 2 atypical locomotion (Pristionchus pacificus; conc 60): 0
- rep 2 coiled (Pristionchus pacificus; conc 60): 9 and 11
- rep 2 no phene (Pristionchus pacificus; conc 60): 0
- rep 2 paralyzed (Pristionchus pacificus; conc 60): 11 and 9
- rep 3 coiled (Pristionchus pacificus; conc 60): 10 and 11
- rep 3 no phene (Pristionchus pacificus; conc 60): 0
- rep 3 paralyzed (Pristionchus pacificus; conc 60): 7 and 8
- atypical locomotion (number of animals) (C. elegans; 3.75uM): 18 and 13 and 2 and 10 and 6
- coiled (number of animals) (C. elegans; 3.75uM): 2 and 5 and 16 and 1 and 3
- no phene (number of animals) (C. elegans; 3.75uM): 0 and 2 and 1 and 8 and 11
- paralyzed (number of animals) (C. elegans; 3.75uM): 0 and 2 and 1
- any phene: mean % fraction of young adults exhibiting any phenotype (coiled, jerky-Unc or paralyzed) (C. elegans; 3.75uM): 81.6667%
- atypical locomotion (number of animals) (C. elegans; 15uM): 11 and 10 and 4 and 3 and 16 and 14
- coiled (number of animals) (C. elegans; 15uM): 9 and 8 and 15 and 14 and 3 and 2
- no phene (number of animals) (C. elegans; 15uM): 0 and 2
- paralyzed (number of animals) (C. elegans; 15uM): 0 and 2 and 1 and 3
- any phene: mean % fraction of young adults exhibiting any phenotype (coiled, jerky-Unc or paralyzed) (C. elegans; 15uM): 96.746%
- atypical locomotion (number of animals) (C. elegans; 60uM): 3 and 2 and 8 and 1 and 0
- coiled (number of animals) (C. elegans; 60uM): 14 and 16 and 3 and 0 and 7 and 5
- no phene (number of animals) (C. elegans; 60uM): 0
- paralyzed (number of animals) (C. elegans; 60uM): 3 and 2 and 14 and 12 and 15
- any phene: mean % fraction of young adults exhibiting any phenotype (coiled, jerky-Unc or paralyzed) (C. elegans; 60uM): 100%
- EC50 (C. elegans): 1.6 ± 2.8 µM
- % effect (motility), DIROIM L4 ([2]; 2 µM): 0%
- % effect (motility), DIROIM L4 ([2]; 10 µM): 0%
- % effect (motility), DIROIM L4 ([2]; 50 µM): 100%

Structure (SMILES): Cc1cc(N2CCN(CC3CCCCC3)CC2)ccc1[N+](=O)[O-] [Nemacol-25, 1-(cyclohexylmethyl)−4-(3-methyl-4-nitrophenyl)piperazine]
- % effect (motility), DIROIM MF ([1]; 0.016 µM): 0%
- % effect (motility), DIROIM MF ([1]; 0.08 µM): 0%
- % effect (motility), DIROIM MF ([1]; 0.4 µM): 0%
- % effect (motility), DIROIM MF ([1]; 2 µM): 40%
- % effect (motility), DIROIM MF ([1]; 10 µM): 60%
- EC50 [1]: 5.11 µM
- mean % any phene (coiled, jerky-Unc or paralyzed) (Pristionchus pacificus; conc 3.75, observed at one hour): 0.8333%
- mean % any phene (coiled, jerky-Unc or paralyzed) (Pristionchus pacificus; conc 15, observed at one hour): 6.667%
- mean % any phene (coiled, jerky-Unc or paralyzed) (Pristionchus pacificus; conc 60, observed at one hour): 29.1667%
- EC50 (Pristionchus pacificus): > 60 µM
- any phene (mean % fraction of young adults exhibiting any phenotype: coiled, jerky-Unc or paralyzed) (C. elegans; 3.75uM, third c14 line of each analog): 2.5%
- any phene (mean % fraction of young adults exhibiting any phenotype: coiled, jerky-Unc or paralyzed) (C. elegans; 15uM, second c14 line of each analog): 20.8333%
- any phene (mean % fraction of young adults exhibiting any phenotype: coiled, jerky-Unc or paralyzed) (C. elegans; 60uM, first c14 line of each analog): 62.5%
- EC50 (C. elegans): 41 ± 26.8 µM
- % effect (motility), DIROIM L4 ([2]; 2 µM): 0%
- % effect (motility), DIROIM L4 ([2]; 10 µM): 11%
- % effect (motility), DIROIM L4 ([2]; 50 µM): 100%
